System: TNF-α
Assay: Inhibition of TNF-α in vivo (LPS-challenged mice)
Design: species or system female Balb/c mice
Settings: p.o., LPS 5 mg/kg i.v. after 2 h, serum 1 h after LPS
Method: Compounds are administered p.o. (100, 30, 10 and 3 mg/kg) to female Balb/c mice (5 mice/dose). After 2 h, lipopolysaccharide (LPS, E. coli serotype 0111:B4, 5 mg/kg) is administered i.v. in the tail vein of each mouse. One hour after LPS administration the mice are asphyxiated by CO2 inhalation and bled out via cardiac puncture.
TNF-α/Luminex Detection Assay (Bio-Rad Bio-Plex Kit—Catalog #171-G12221)
Reconstitute the lyophilized premixed TNF-α standard (1 standard tube/two 96-well plates) with 50 μL sterile water (500,000 pg/mL). Gently vortex for 5 seconds, incubate on ice for 30 min, and vortex for 5 seconds before use. Label a set of twelve 1.5 mL tubes with #1-thru #12 and then add the amounts of cell media shown below to the appropriate tubes (standard concentrations are as follows: 50,000; 25,000; 12,500; 6,250; 3,125; 1,562.5; 781.3; 390.6; 195.3; 97.7; 48.8; and 24.4 pg/mL). Vortex the premixed anti-cytokine conjugated beads (25×) vigorously for 30 seconds. Dilute the anti-cytokine conjugated beads to a 1× concentration using 1× Bio-Plex Assay Buffer. […] Read standards and samples on Luminex machine. These intensity readings are then converted to picogram/milliliter units based on a 12-point standard curve created in duplicate using a four-parameter logistic regression method (Bio-Plex Manager 2.0, Bio-Rad), and the IC50 calculated. […]

CC(C)(C)Cn1c(N)nc2ccc(-c3nc(C(C)(C)C)[nH]c3-c3ccc(F)cc3)nc21.CS(=O)(=O)O.CS(=O)(=O)O [EXAMPLE 104, Crystalline 5-[2-tert-Butyl-5-(4-fluoro-phenyl)-1H-imidazol-4-yl]-3-(2,2-dimethyl-propyl)-3H-imidazo[4,5-b]pyridin-2-ylamine dimethanesulfonate]
IC50 (suppressed TNF-α in vivo): < 1 mg/kg
